Experiment [1] in a line: Effect on body weight loss and food intake in wildtype Diet Induced Obesity (DIO) mice. The settings on record: for BW 30 nmol/kg 5 day (body weight loss vs. vehicle group): 30 nmol/kg s.c. once daily. The class given is in vivo. From the text:
Effect on Body Weight Loss in Wildtype Diet Induced Obesity Mice
Male C57BL6/J pre-fed on 60% high fat diet were obtained from The Jackson Laboratories at >16 weeks of age. Upon arrival of the Diet Induced Obesity (DIO) mice, the mice where single housed to obtain accurate and individual food intake measurements of each animal and assigned an animal number. […] During the entire study animals had ad libitum access to food and water.
Before start of treatment a stratified randomization was performed based on the body weight measured in week −1 prior study start. At study start the age of mice was around 20 weeks. Bodyweight and food intake were measured daily before compound administration. Animals were dosed around one hour before start of the night phase by subcutaneous injection of 30 nmol/kg once daily for 5 till 28 days depending on the experiment. Control animals were dosed by subcutaneous injection daily with vehicle.

Experiment [2] can be described thus: Effect on acute food intake (AFI) in normal NMRI mice. The class given is in vivo. The settings on record: male NMRI mice, 10 nmol/kg s.c. once, % vs. vehicle group. Here is the method:
Effect on Acute Food Intake in Normal NMRI Mice
Male NMRI mice were obtained from Charles River (Charles River, Research Models & Services Germany GmbH) or from JanVier (JanVier Labs, France) at 5 weeks of age. […] Room temperature was controlled to 21° C.±1° C., with 60%±20% humidity.
Animals were transferred 5-7 days before the start of the study to a real-time food intake monitoring system, HM-2 system (MBRose, Denmark), to allow acclimatization to experimental conditions. As the animals were uniquely identified with microchips, each individual animal was identified by its microchip upon entry and exit from the food channel. Randomization of the mice for each study group (n=7-8) was based on body weight measured the day before the start of the study. A vehicle-treated (50 mM phosphate buffer pH7 with 5% Mannitol) group was included in each experiment. Six hours before the start of the night phase animals were fasted. One hour before the dark phase animals were dosed once subcutaneously (10 nmol/kg) with test peptide. […] The food intake of the treated groups was normalized (in %) to the average food intake of the group receiving vehicle (Table 1). Statistical significance was evaluated using One-way analysis of variance with Turkey's multiple comparison test. P<0.05 was considered statistically significant.

Molecules are shown by their SMILES.

In the case of `CC[C@H](C)[C@H](NC(=O)[C@H](CCC(=O)O)NC(=O)[C@H](CCC(=O)O)NC(=O)[C@@H]1CCCN1C(=O)[C@@H](NC(=O)[C@H](C)NC(=O)[C@H](CC(=O)O)NC(=O)[C@H](CCC(=O)O)NC(=O)[C@H](CCC(=O)O)NC(=O)[C@@H]1CCCN1C(=O)[C@H](CCCCNC(=O)COCCOCCNC(=O)COCCOCCNC(=O)CC[C@H](NC(=O)CCCCCCCCCCCCCCCCC(=O)O)C(=O)O)NC(=O)[C@H](CCC(=O)O)NC(=O)[C@@H]1CCCN1C(=O)[C@H](C)NC(=O)CC(C)C)[C@@H](C)O)C(=O)N[C@@H](CCC(N)=O)C(=O)N[C@@H](CCCNC(=N)N)C(=O)N[C@@H](Cc1ccc(O)cc1)C(=O)N[C@@H](Cc1ccc(O)cc1)C(=O)N[C@H](C(=O)N[C@@H](CO)C(=O)N[C@@H](CC(C)C)C(=O)N[C@@H](CCCNC(=N)N)C(=O)N[C@@H](Cc1c[nH]cn1)C(=O)N[C@@H](Cc1ccc(O)cc1)C(=O)N[C@@H](Cc1ccc(O)cc1)C(=O)N[C@@H](CC(N)=O)C(=O)N[C@@H](Cc1c[nH]c2ccccc12)C(=O)N[C@@H](CC(C)C)C(=O)N[C@H](C(=O)N[C@@H](CCCNC(=N)N)C(=O)N[C@@H](CCC(N)=O)C(=O)N[C@@H](CCCNC(=N)N)C(=O)N[C@@H](Cc1ccc(O)cc1)C(N)=O)[C@@H](C)O)C(C)C` [Compound G, N{alpha-4}-(3-methylbutanoyl)-N{epsilon-7}-[2-(2-{2-[2-(2-{2-[(4S)-4-carboxy-4-(17-carboxyheptadecanamido)butanamido]ethoxy}ethoxy)acetamido]ethoxy}ethoxy)acetamido]-[4A,7K,9E,13T,17I,18Q,22V,28Y,30W,31L]hPYY(4-36)], the “BW 30 nmol/kg 5 day (body weight loss vs. vehicle group)” value in experiment [1] worked out at 10.6%. In addition, in experiment [2], the “AFI 10 nmol/kg 24 h (food intake normalized to vehicle group)” value is listed as 44%.

Consider `CC[C@H](C)[C@H](NC(=O)[C@H](CCC(=O)O)NC(=O)[C@H](CCC(=O)O)NC(=O)[C@@H]1CCCN1C(=O)[C@H](CO)NC(=O)[C@H](C)NC(=O)[C@H](CC(=O)O)NC(=O)[C@H](CCC(=O)O)NC(=O)[C@H](CCC(=O)O)NC(=O)[C@@H]1CCCN1C(=O)[C@H](CCCCNC(=O)COCCOCCNC(=O)COCCOCCNC(=O)CC[C@H](NC(=O)CCCCCCCCCCCCCCCCC(=O)O)C(=O)O)NC(=O)[C@H](C)NC(=O)[C@@H]1CCCN1C(=O)[C@H](C)NC(=O)CC(C)C)C(=O)N[C@@H](CCC(N)=O)C(=O)N[C@@H](CCCNC(=N)N)C(=O)N[C@@H](Cc1ccc(O)cc1)C(=O)N[C@@H](Cc1ccc(O)cc1)C(=O)N[C@H](C(=O)N[C@@H](CO)C(=O)N[C@@H](CC(C)C)C(=O)N[C@@H](CCCNC(=N)N)C(=O)N[C@@H](Cc1c[nH]cn1)C(=O)N[C@@H](Cc1ccc(O)cc1)C(=O)N[C@@H](Cc1ccc(O)cc1)C(=O)N[C@@H](CC(N)=O)C(=O)N[C@@H](Cc1c[nH]c2ccccc12)C(=O)N[C@@H](CC(C)C)C(=O)N[C@H](C(=O)N[C@@H](CCCNC(=N)N)C(=O)N[C@@H](CCC(N)=O)C(=O)N[C@@H](CCCNC(=N)N)C(=O)N[C@@H](Cc1ccc(O)cc1)C(N)=O)[C@@H](C)O)C(C)C` [Compound E, N{alpha-4}-(3-methylbutanoyl)-N{epsilon-7}-[2-(2-{2-[2-(2-{2-[(4S)-4-carboxy-4-(17-carboxyheptadecanamido)butanamido]ethoxy}ethoxy)acetamido]ethoxy}ethoxy)acetamido]-[4A,6A,7K,9E,17I,18Q,22V,28Y,30W,31L]hPYY(4-36)], for which the “BW 30 nmol/kg 5 day (body weight loss vs. vehicle group)” value in experiment [1] came out at 7.3%. Besides, the “body weight lowering efficacy (% BW), combination with Compound I compared to combination with semaglutide” value in experiment [1] (once daily (FIGS. 6A, 8A vs. 5A, 7A)) is listed as “greater body weight lowering efficacy”. Further, the “duration of food intake reduction, combination with Compound I vs. combination with semaglutide” value in experiment [1] (once daily (FIGS. 6B, 8B vs. 5B, 7B)) was “longer-lasting effect on food intake”. Also, the “total food intake, combination with Compound I” value in experiment [1] (once daily, area under the curve of food intake (FIGS. 6D, 8D)) is recorded as “pronounced total food intake reduction”. Moreover, the “body weight loss in combination with Compound I” value in experiment [1] (once daily, combination with Compound I (FIGS. 6A, 8A, 10A)) is listed as “Synergistic body weight loss”. In experiment [1] (once daily, combination with semaglutide (FIGS. 5A, 7A, 9A)), the “effect on body weight in combination with semaglutide” value is “synergistic effect”. In addition, in experiment [2], the “AFI 10 nmol/kg 24 h (food intake normalized to vehicle group)” value is 48%.

As to `CC(C)CC(=O)N[C@@H](C)C(=O)N1CCC[C@H]1C(=O)N[C@@H](C)C(=O)N[C@@H](CCCCNC(=O)COCCOCCNC(=O)COCCOCCNC(=O)CC[C@H](NC(=O)CCCCCCCCCCCCCCCCC(=O)O)C(=O)O)C(=O)N1CCC[C@H]1C(=O)N[C@@H](CCC(=O)O)C(=O)N[C@@H](CCC(=O)O)C(=O)N[C@@H](CC(=O)O)C(=O)N[C@@H](C)C(=O)N[C@H](C(=O)N1CCC[C@H]1C(=O)N[C@@H](CCC(=O)O)C(=O)N[C@@H](CCC(=O)O)C(=O)N[C@@H](CC(C)C)C(=O)N[C@@H](CCC(N)=O)C(=O)N[C@@H](CCCNC(=N)N)C(=O)N[C@@H](Cc1ccc(O)cc1)C(=O)N[C@@H](Cc1ccc(O)cc1)C(=O)N[C@H](C(=O)N[C@@H](CO)C(=O)N[C@@H](CC(C)C)C(=O)N[C@@H](CCCNC(=N)N)C(=O)N[C@@H](Cc1c[nH]cn1)C(=O)N[C@@H](Cc1ccc(O)cc1)C(=O)N[C@@H](Cc1ccc(O)cc1)C(=O)N[C@@H](CC(N)=O)C(=O)N[C@@H](Cc1c[nH]c2ccccc12)C(=O)N[C@@H](CC(C)C)C(=O)N[C@H](C(=O)N[C@@H](CCCNC(=N)N)C(=O)N[C@@H](CCC(N)=O)C(=O)N[C@@H](CCCNC(=N)N)C(=O)N[C@@H](Cc1ccc(O)cc1)C(N)=O)[C@@H](C)O)C(C)C)[C@@H](C)O` [Compound A, N{alpha-4}-(3-methylbutanoyl)-N{epsilon-7}-[2-(2-{2-[2-(2-{2-[(4S)-4-carboxy-4-(17-carboxyheptadecanamido)butanamido]ethoxy}ethoxy)acetamido]ethoxy}ethoxy)acetamido]-[4A,6A,7K,9E,13T,18Q,22V,28Y,30W,31L]hPYY(4-36)], the “BW 30 nmol/kg 5 day (body weight loss vs. vehicle group)” value in experiment [1] came to 6.7%. Moreover, in experiment [2], the “AFI 10 nmol/kg 24 h (food intake normalized to vehicle group)” value came to 39%.
